Results as given in ChEMBL document CHEMBL1152297, “Quantitative three dimensional structure linear interaction energy model of 5'-O-[N-(salicyl)sulfamoyl]adenosine and the aryl acid adenylating enzyme MbtA” (J Med Chem, 2008).

molecular target: T1, Salicyl-AMP ligase / salicyl-S-ArCP synthetase (Mycobacterium tuberculosis, UniProt P71716); assay: Inhibition of Mycobacterium tuberculosis BAG RV143 MbtA expressed in Escherichia coli BL21 (DE3) assessed as ATP-[32P]PPi exchange by liquid scintillation counting; conditions: read-out: Ki(app)
T1 sequence (P71716 whole entry): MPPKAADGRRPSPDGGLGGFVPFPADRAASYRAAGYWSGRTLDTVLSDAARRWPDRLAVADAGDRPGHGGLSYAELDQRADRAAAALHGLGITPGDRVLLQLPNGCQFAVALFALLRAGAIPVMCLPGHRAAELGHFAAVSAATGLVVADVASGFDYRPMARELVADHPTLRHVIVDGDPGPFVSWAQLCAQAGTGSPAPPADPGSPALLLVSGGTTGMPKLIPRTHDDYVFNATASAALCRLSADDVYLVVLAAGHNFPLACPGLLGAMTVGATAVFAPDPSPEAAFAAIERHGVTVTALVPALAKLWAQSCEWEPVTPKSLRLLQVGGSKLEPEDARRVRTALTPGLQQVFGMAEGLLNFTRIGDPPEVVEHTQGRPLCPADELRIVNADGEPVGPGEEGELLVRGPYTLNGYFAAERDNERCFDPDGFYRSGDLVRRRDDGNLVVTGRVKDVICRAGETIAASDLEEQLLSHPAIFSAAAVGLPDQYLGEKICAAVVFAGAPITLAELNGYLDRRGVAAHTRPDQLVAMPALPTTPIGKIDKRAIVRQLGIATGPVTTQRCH

SMILES | Ki [nM]
Nc1ncnc2c1ncn2[C@H]1C=C[C@@H](COS(=O)(=O)NC(=O)c2ccccc2O)C1 | 830
Nc1ncnc2c1ncn2[C@@H]1O[C@H](COS(=O)(=O)NCc2ccccc2O)[C@@H](O)[C@H]1O | 410
Nc1ncnc2c1ncn2[C@H]1CC[C@@H](COS(=O)(=O)NC(=O)c2ccccc2O)C1 | 61
Nc1ncnc2c1ncn2[C@@H]1O[C@H](COS(=O)(=O)NC(=O)c2ccccc2O)C[C@H]1O | 3.2
Nc1ncnc2c1ncn2[C@@H]1O[C@H](CNS(=O)(=O)/C=C/c2ccccc2O)[C@@H](O)[C@H]1O | 143000
Nc1ncnc2c1ncn2[C@@H]1O[C@H](CNS(=O)(=O)NC(=O)c2ccccc2O)[C@@H](O)[C@H]1O | 3.8
Nc1ncnc2c1ncn2[C@@H]1C[C@H](COS(=O)(=O)NC(=O)c2ccccc2O)[C@@H](O)[C@H]1O | 2.3
Nc1ncnc2c1ncn2[C@@H]1O[C@H](COS(=O)(=O)CC(=O)c2ccccc2O)[C@@H](O)[C@H]1O | 3300
Nc1ncnc2c1ncn2[C@H]1C[C@H](O)[C@@H](COS(=O)(=O)NC(=O)c2ccccc2O)O1 | 3.5
